Data from US9694016B2 (Novartis AG, priority 2013, dated 2017).

Each molecule was assayed against b-Raf (V600E) (Homo sapiens (Human), UniProt P15056, V600E). Conditions: read-out: b-Raf IC-50; AlphaScreen, 60 min pre-incubation, 3 hours reaction.
b-Raf (V600E), sequence (P15056 whole entry V600E): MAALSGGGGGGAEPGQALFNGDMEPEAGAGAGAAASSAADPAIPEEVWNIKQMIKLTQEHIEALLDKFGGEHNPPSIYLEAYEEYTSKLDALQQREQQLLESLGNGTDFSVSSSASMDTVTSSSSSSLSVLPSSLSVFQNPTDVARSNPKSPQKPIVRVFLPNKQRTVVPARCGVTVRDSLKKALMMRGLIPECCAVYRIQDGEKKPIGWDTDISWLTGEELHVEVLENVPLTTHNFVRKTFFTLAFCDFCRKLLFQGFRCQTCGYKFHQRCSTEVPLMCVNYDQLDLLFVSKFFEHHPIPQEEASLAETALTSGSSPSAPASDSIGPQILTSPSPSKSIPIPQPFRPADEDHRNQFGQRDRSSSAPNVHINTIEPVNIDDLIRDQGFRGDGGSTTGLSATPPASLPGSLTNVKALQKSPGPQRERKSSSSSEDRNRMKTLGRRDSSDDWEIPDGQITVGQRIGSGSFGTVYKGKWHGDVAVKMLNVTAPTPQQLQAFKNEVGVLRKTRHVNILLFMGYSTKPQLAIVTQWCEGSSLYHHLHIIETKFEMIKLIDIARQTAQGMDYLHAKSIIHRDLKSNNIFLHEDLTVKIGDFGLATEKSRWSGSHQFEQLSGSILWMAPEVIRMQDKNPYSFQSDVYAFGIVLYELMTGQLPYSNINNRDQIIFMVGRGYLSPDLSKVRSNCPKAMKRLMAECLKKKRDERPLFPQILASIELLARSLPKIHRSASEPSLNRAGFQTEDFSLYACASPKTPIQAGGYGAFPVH

Row | IC50 [nM] | SMILES
1 | 0.2 | Cc1ccc(NC(=O)c2cccc(C(F)(F)F)c2)cc1-c1nc(N2CCOCC2)c2c(cnn2C)n1 [Example 837, N-(4-methyl-3-(1-methyl-7-morpholino-1H-pyrazolo[4,3-d]pyrimidin-5-yl)phenyl)-3-(trifluoromethyl)benzamide]
2 | 1.1 | COc1nnc(-c2cc(NC(=O)c3ccnc(C(C)(F)F)c3)ccc2C)cc1N1CCOCC1 [Example 548, 2-(1,1-difluoroethyl)-N-(3-(6-methoxy-5-morpholinopyridazin-3-yl)-4-methylphenyl)isonicotinamide]
3 | 0.6 | CCOc1nnc(-c2cc(NC(=O)c3ccnc(C4CC4)c3)ccc2C)cc1N1CCOCC1 [Example 563, 2-cyclopropyl-N-(3-(6-ethoxy-5-morpholinopyridazin-3-yl)-4-methylphenyl)isonicotinamide]
4 | 10.2 | Cc1ccc(NC(=O)c2ccnc(C(C)(C)C#N)c2)cc1-c1cc(N2CCOCC2)nc(N2CC(O)C2)n1 [Example 769]
5 | 2 | CCC(F)(F)c1cc(C(=O)Nc2cnc(C)c(-c3cc(N4CCOCC4)n4nccc4n3)c2)ccn1 [Example 800, 2-(1,1-difluoropropyl)-N-(6-methyl-5-(7-morpholinopyrazolo[1,5-a]pyrimidin-5-yl)pyridin-3-yl)isonicotinamide]
6 | 2.1 | CCn1c(N2CCOCC2)cc(-c2cc(NC(=O)c3ccnc(C(F)(F)CC)c3)ccc2C)cc1=O [Example 520, 2-(1,1-difluoropropyl)-N-(3-(1-ethyl-6-morpholino-2-oxo-1,2-dihydropyridin-4-yl)-4-methylphenyl)isonicotinamide]
7 | 1.8 | Cc1ccc(C(=O)Nc2cccc(C(F)(F)F)c2)cc1-c1cc(N2CCOCC2)nc(N2CC(O)C2)n1 [Example 766, 3-(2-(3-hydroxyazetidin-1-yl)-6-morpholinopyrimidin-4-yl)-4-methyl-N-(3-(trifluoromethyl)phenyl)benzamide]
8 | 12.1 | Cc1ccc(NC(=O)c2ccccc2)cc1-c1cc(N2CCOCC2)n(C)c(=O)c1 [Example 473, N-(4-methyl-3-(1-methyl-6-morpholino-2-oxo-1,2-dihydropyridin-4-yl)phenyl)benzamide]
9 | 0.8 | CCOc1nnc(-c2cc(NC(=O)c3cnnc(C(F)(F)F)c3)ccc2C)cc1N1CCOCC1 [Example 570, N-(3-(6-ethoxy-5-morpholinopyridazin-3-yl)-4-methylphenyl)-6-(trifluoromethyl)pyridazine-4-carboxamide]
10 | 0.5 | COCCOc1nnc(-c2cc(NC(=O)c3ccnc(C(C)(F)F)c3)ccc2C)cc1N1CCOCC1 [Example 597, 2-(1,1-difluoroethyl)-N-(3-(6-(2-methoxyethoxy)-5-morpholinopyridazin-3-yl)-4-methylphenyl)isonicotinamide]
11 | 41.2 | Cc1ncc(NC(=O)c2ccnc(C(C)(F)F)c2)cc1-c1cc(N2CCOC[C@H]2C)n(C)c(=O)c1 [Example 524, (R)-2-(1,1-difluoroethyl)-N-(1′,2-dimethyl-6′-(3-methylmorpholino)-2′-oxo-1′,2′-dihydro-[3,4′-bipyridin]-5-yl)isonicotinamide]
12 | 9 | CCNc1nc(-c2cc(NC(=O)c3cccc(C(C)(C)C#N)c3)cnc2C)cc(N2CCOCC2)n1 [Example 726, 3-(2-cyanopropan-2-yl)-N-(5-(2-(ethylamino)-6-morpholinopyrimidin-4-yl)-6-methylpyridin-3-yl)benzamide]
13 | 0.8 | COCCOc1nnc(-c2cc(NC(=O)c3ccnc(C(C)(C)F)c3)ccc2C)cc1N1CCOCC1 [Example 600, 2-(2-fluoropropan-2-yl)-N-(3-(6-(2-methoxyethoxy)-5-morpholinopyridazin-3-yl)-4-methylphenyl)isonicotinamide]
14 | 1.9 | Cc1ncc(NC(=O)c2cccc(C(F)(F)F)c2)cc1-c1cc(N2CCOCC2)nc(N[C@H](C)CO)n1 [Example 748, (R)—N-(5-(2-((1-hydroxypropan-2-yl)amino)-6-morpholinopyrimidin-4-yl)-6-methylpyridin-3-yl)-3-(trifluoromethyl)benzamide]
15 | 1.7 | Cc1ccc(NC(=O)c2cccc(C(F)(F)F)c2)cc1-c1nc(N2CCOCC2)c2cccnc2n1 [Example 833, N-(4-methyl-3-(4-morpholinopyrido[2,3-d]pyrimidin-2-yl)phenyl)-3-(trifluoromethyl)benzamide]
16 | 2.8 | CCOc1ncc(-c2cc(NC(=O)c3cccc(C(F)(F)F)c3)cnc2C)nc1N1CCOCC1 [Example 539, N-(5-(5-ethoxy-6-morpholinopyrazin-2-yl)-6-methylpyridin-3-yl)-3-(trifluoromethyl)benzamide]
17 | 4.2 | Cc1ccc(NC(=O)c2ccnc(C(C)(F)F)c2)cc1-c1cc(N2CCOCC2)nc(N(C)C)n1 [Example 756, 2-(1,1-difluoroethyl)-N-(3-(2-(dimethylamino)-6-morpholinopyrimidin-4-yl)-4-methylphenyl)isonicotinamide]
18 | 200 | Cc1ncc(NC(=O)c2ccccc2)cc1-c1cc(N2CCOCC2)n(C)c(=O)c1 [Example 503, N-(1′,2-dimethyl-6′-morpholino-2′-oxo-1′,2′-dihydro-[3,4′-bipyridin]-5-yl)benzamide]

Same assay, conditions: read-out: b-Raf IC-50; AlphaScreen, 60 min pre-incubation, reaction 3 hours at room temperature

Row | IC50 [nM] | SMILES
19 | 3.2 | Cc1ncc(NC(=O)c2cccc(C(F)F)c2)cc1-c1cc(N2CCOCC2)c2nccn2c1 [Example 880, 3-(difluoromethyl)-N-(6-methyl-5-(8-morpholinoimidazo[1,2-a]pyridin-6-yl)pyridin-3-yl)benzamide]
20 | 5.75 | Cc1ccc(NC(=O)c2ccnc(C(C)(C)O)c2)cc1-c1cc(N2CCOCC2)nc(N2CC(O)C2)c1 [Example 1098, N-(3-(2-(3-hydroxyazetidin-1-yl)-6-morpholinopyridin-4-yl)-4-methylphenyl)-2-(2-hydroxypropan-2-yl)isonicotinamide]
21 | 2.8 | Cc1ncc(NC(=O)c2ccc(C(O)CO)c(C(F)(F)F)c2)cc1-c1cc(N2CCOCC2)c2nccn2n1 (centres unmarked) [Example 873, 4-(1,2-dihydroxyethyl)-N-(6-methyl-5-(8-morpholinoimidazo[1,2-b]pyridazin-6-yl)pyridin-3-yl)-3-(trifluoromethyl)benzamide]
22 | 1.6 | Cc1ccc(C(=O)Nc2cccc(C(F)(F)F)c2)cc1-c1cc(N2CCOCC2)c2nccn2n1 [Example 888, 4-methyl-3-(8-morpholinoimidazo[1,2-b]pyridazin-6-yl)-N-(3-(trifluoromethyl)phenyl)benzamide]
23 | 2.88 | Cc1ncc(NC(=O)c2ccnc(C(C)(C)F)c2)cc1-c1cnc(OC2CC3(COC3)C2)c(N2CCOCC2)c1 [Example 963, N-(6′-(2-oxaspiro[3.3]heptan-6-yloxy)-2-methyl-5′-morpholino-[3,3′-bipyridin]-5-yl)-2-(2-fluoropropan-2-yl)isonicotinamide]
24 | 1.86 | Cc1ncc(NC(=O)c2ccnc(C(F)(F)F)c2)cc1-c1cnc(OC(F)F)c(N2CCOCC2)c1 [Example 978]
25 | 26.5 | CCN1CCN(c2cc(C(=O)Nc3cnc(C)c(-c4cc(N5CCOCC5)nc(N5CC(O)C5)c4)c3)cc(C(F)(F)F)c2)CC1 [Example 1087, 3-(4-ethylpiperazin-1-yl)-N-(2′-(3-hydroxyazetidin-1-yl)-2-methyl-6′-morpholino-[3,4′-bipyridin]-5-yl)-5-(trifluoromethyl)benzamide]
26 | 43 | Cc1ncc(NC(=O)c2cccc(C(F)(F)F)c2)cc1-c1ccnc(N2CCOCC2=O)c1 [Example 1135, N-(2-methyl-2′-(3-oxomorpholino)-[3,4′-bipyridin]-5-yl)-3-(trifluoromethyl)benzamide]

Same assay, conditions: read-out: b-Raf IC-50; Table 2; AlphaScreen, 3 hours reaction

Row | IC50 [nM] | SMILES
27 | 10.6 | CCn1cc(-c2cc(NC(=O)c3ccnc(C(C)(C)C#N)c3)ccc2C)cc(N2CCOCC2)c1=O [Example 160, 2-(2-cyanopropan-2-yl)-N-(3-(1-ethyl-5-morpholino-6-oxo-1,6-dihydropyridin-3-yl)-4-methylphenyl)isonicotinamide]
28 | 3.4 | COc1ncc(-c2cc(NC(=O)c3ccnc(C(C)(C)F)c3)cnc2Cl)cc1N1CCOCC1 [Example 262, N-(2-chloro-6′-methoxy-5′-morpholino-[3,3′-bipyridin]-5-yl)-2-(2-fluoropropan-2-yl)isonicotinamide]
29 | 10.8 | Cc1ncc(NC(=O)c2ccnc(C(C)(C)F)c2)cc1-c1cncc(N2CCOCC2)c1 [Example 294, 2-(2-fluoropropan-2-yl)-N-(2-methyl-5′-morpholino-[3,3′-bipyridin]-5-yl)isonicotinamide]
30 | 2.6 | Cn1cc(-c2cc(C(=O)Nc3cccc(C(F)(F)F)c3)ccc2Cl)cc(N2CCOCC2)c1=O [Example 425, 4-chloro-3-(1-methyl-5-morpholino-6-oxo-1,6-dihydropyridin-3-yl)-N-(3-(trifluoromethyl)phenyl)benzamide]
31 | 25000 | CC(F)(F)c1cc(C(=O)Nc2c[nH]c(=O)c(-c3ccnc(N4CCOCC4)c3)c2)ccn1 [Example 89, 2-(1,1-difluoroethyl)-N-(2′-morpholino-2-oxo-1,2-dihydro-[3,4′-bipyridin]-5-yl)isonicotinamide]
32 | 3.8 | Cc1ncc(NC(=O)c2cccc(C(F)(F)F)c2)cc1-c1cnc(C#N)c(N2CCOCC2)c1 [Example 222, N-(6′-cyano-2-methyl-5′-morpholino-[3,3′-bipyridin]-5-yl)-3-(trifluoromethyl)benzamide]
33 | 1.2 | CCOc1ncc(-c2cc(NC(=O)c3ccnc(C(F)(F)F)c3)cnc2C)cc1N1CCOCC1 [Example 246, N-(6′-ethoxy-2-methyl-5′-morpholino-[3,3′-bipyridin]-5-yl)-2-(trifluoromethyl)isonicotinamide]
34 | 0.8 | Cc1ncc(NC(=O)c2ccnc(C(C)C)c2)cc1-c1cnc(N(C)C)c(N2CCOCC2)c1 [Example 308, N-(6′-(dimethylamino)-2-methyl-5′-morpholino-[3,3′-bipyridin]-5-yl)-2-isopropylisonicotinamide]
35 | 10.8 | Cc1ncc(NC(=O)c2ccc(F)c(OC(C)C)c2)cc1-c1cc(N2CCOCC2)c(=O)n(C)c1 [Example 396, N-(1′,2-dimethyl-5′-morpholino-6′-oxo-1′,6′-dihydro-[3,3′-bipyridin]-5-yl)-4-fluoro-3-isopropoxybenzamide]
